Results as given in patent publication US20080242546A1, “Synergistic herbicidal composition containing chloroacetanilides and picolinic acids” (Dow AgroSciences LLC, priority 2007, published 2008).

Key:
[1] = test system: CHEAL; assay: Field trial in field corn, early postemergence weed control, visual rating; assay type: in vivo, chenopodium album L; settings: early post
Procedure: (§1) Field trials were established to evaluate weed control with herbicides applied at an early postemergence timing in field corn. Each trial was conducted as a randomized complete block design with three replications of each treatment in plots that ranged in size from 2.5×6.5 meters to 3.0×8.0 meters. Herbicide treatments in these trials included: • acetochlor at 1680 g/ha • clopyralid+picloram at 93.5+23.5 g/ha • clopyralid+picloram+aminopyralid at 72+24+12 g/ha • acetochlor+clopyralid+picloram at 1680+93.5+23.5 g/ha • acetochlor+clopyralid+picloram+aminopyralid at 1680+72+24+12 g/ha These herbicide treatments were broadcast sprayed postemergence over 1 to 3 leaf corn and 1 to 2 leaf weeds. The acetochlor formulation being used also contained furilazole safener.
(§2) The degree of weed control was visually evaluated and recorded at 40 to 71 days after application as a percent of weed control. Percent control is the total injury to the plants due to all factors including: stunting, malformation, chlorosis, necrosis, inhibition of emergence, and other types of plant injury. The control ratings range from 0 to 100 percent, where 0 represents no injury and 100 represents complete kill.
(§3) The Colby method represents a direct approach to measuring the synergistic activity of two herbicides.

[2] = test system: POLAV; assay: as above; assay type: in vivo, polygonum aviculare; settings: early post
Procedure: as §1, §2, §3

[3] = test system: POLCO; assay: as above; assay type: in vivo, polygonum convolvulus L; settings: early post
Procedure: as §1, §2, §3

[4] = test system: PAPRH; assay: Field trial in oilseed rape, preemergence weed control, visual rating; assay type: in vivo, papaver rhoeas L; settings: preemergence to weeds
Procedure: (§4) E=X+Y-(XY/100), […] Additional field trials were established to evaluate weed control with herbicides applied at an […] timing in oilseed rape, prior to any weed emergence. Each trial was conducted as a randomized complete block design with three replications of each treatment in plots that ranged in size from 2.5×5.o meters to 3.0×6.0 meters. […] The degree of weed control was visually evaluated and recorded at 55 to 68 days after application as a percent of weed control. Percent control is the total injury to the plants due to all factors including: stunting, malformation, chlorosis, necrosis, inhibition of emergence, and other types of plant injury.

[5] = test system: VIOAR; assay: as above; assay type: in vivo, viola arvensis L; settings: preemergence to weeds
Procedure: as §4

[6] = test system: GALAP; assay: as above; assay type: in vivo, galium aparine L; settings: preemergence to weeds
Procedure: as §4

[7] = 1680 g ai/ha, 40 to 71 days after application
[8] = 750 g ai/ha, 55 to 68 days after application

SMILES | control of CHEAL in words (synergistic action / acceptable control) [1] | percent of weed control [2, 7] | control of POLAV in words (synergistic action / acceptable control) [2] | percent of weed control [3, 7] | control of POLCO in words (synergistic action / acceptable control) [3] | percent of weed control [4, 8] | control of PAPRH in words (synergistic action / acceptable control) [4] | percent of weed control [5, 8] | control of VIOAR in words (synergistic action / acceptable control) [5] | percent of weed control [6, 8] | control of GALAP in words (synergistic action / acceptable control) [6]
CCOCN(C(=O)CCl)c1c(C)cccc1CC [acetochlor, 2-chloro-N-(ethoxymethyl)-N-(2-ethyl-6-methylphenyl)acetamide] | did not provide acceptable control | 58% | did not provide acceptable control | 52% | did not provide acceptable control | – | – | – | – | – | –
Cc1cccc(C)c1N(Cn1cccn1)C(=O)CCl [metazachlor, 2-chloro-N-(2,6-dimethylphenyl)-N-(1H-pyrazol-1-ylmethyl)acetamide] | – | – | – | – | – | 10% | did not provide acceptable control | 0% | did not provide acceptable control | 53% | did not provide acceptable control
